Where only a bound is given, the exact number is not on record here.

The source of these data is a melting point compilation (Tetko et al.; mined from patent text by program, amines drawn as free bases though some values may be those of a salt).

Broadly, the melting point is the temperature of the solid-liquid transition. In turn, `COc1ccc(/C(C)=C/C=C/C(=O)O)cc1` had a melting point of 174 to 177 °C.
In the case of `CCOC(=O)C1=C(C)Nc2cncn2C1c1cccc([N+](=O)[O-])c1` (configuration not stated), the melting point was 196 to 197 °C.
In turn, `CC(=O)Nc1cc(=O)c2cc(Oc3ccccc3)c(NS(C)(=O)=O)cc2o1` returned a melting point of 236 to 238 °C.
Molecule `CN(C)CCCOc1ccc(-c2ccc3nnn(Cc4ccc5ncccc5c4)c3n2)cc1F` had a melting point of 102 to 105 °C.
Take `CN(CCCCCCCC(F)(F)C(F)(F)F)CCCCCC1Cc2cc(O)ccc2C2C(F)CC3(C)C(O)CCC3C12` (configuration not stated): the melting point came to 11 °C.
To `O=C(O[C@@H]1CCN(CC#CCN2CCCC2)C1=O)c1ccc([N+](=O)[O-])cc1` belongs 89 to 90 °C.
Consider `O=C1OCCN1c1ccc(NCCO)c([N+](=O)[O-])c1`, for which the melting point is 184 °C.
To `O=C(NC[C@@H](C(=O)NO)N1CCOCC1)c1ccc(OCc2ccnc(-c3cccc(C(F)(F)F)c3)c2)cc1` belongs 151 °C.
To `CCNC(=S)Nc1ccc(NNC(C)=O)cc1` belongs 191 to 193 °C; to `CC(=O)C1(O)CCC2C3C=C(Cl)C4=CC(=O)OCC4(C)C3CCC21C` (configuration not stated), 218 to 221 °C.
In turn, `COc1ccc(CCC(=O)C2C(=O)NC(=O)NC2=O)cc1` displayed a melting point of 248 to 250 °C.
In the case of `Cc1c(O)cccc1C(=O)N[C@@H](Cc1ccccc1)[C@H](O)C(=O)N1CSC(C)(C)[C@H]1C(=O)NCc1cccc(OC(F)(F)F)c1`, the melting point lay within 102 to 105 °C.
The result for `O=c1oc(-c2cccc(-c3ccccc3)c2)cc(O)c1Sc1ccccc1CC1CC1` reads 88 °C.
With `Cc1cccc(NC(=O)NCC(=O)N(c2ccccc2)c2cccc(Cl)c2)c1`, the melting point came out at 184 °C.
Regarding `CC(C)(NC(=O)C1=C(C(=O)Nc2cc(OC3CCCC3)c(Cl)cc2F)CCCC1)c1ccc(Cl)cc1`, the melting point was 218 to 219 °C.
As to `CCOC(CNC(=S)Nc1ccn(C)n1)OCC`, the melting point lay in the range of 152 to 155 °C.
To `CC(=O)NC(=O)Nc1ccc(OS(=O)(=O)c2cccc(C(F)(F)F)c2)cc1[N+](=O)[O-]` belongs 196 °C; to `CN(C)CCCOc1ccc(N(C(=O)c2ccc([N+](=O)[O-])cc2)c2ccccc2)cc1`, 89.5 to 92.5 °C; to `COc1ccnc(OC)c1CON=C(C#N)c1cc(C)cc(C)n1`, 196 to 201 °C.
With `CCOC(C)O[C@H]1C(=O)N[C@H]1C1CCCCC1` (some centres not stated), the melting point was in the range of 87 to 89 °C.
To `Clc1ncc(C2CCCCC2)c2ccccc12` belongs 53 to 55 °C; to `Cc1ccc(S(=O)(=O)OCC2Cc3cc(Cl)cc(C(C)(C)C)c3O2)cc1` (configuration not stated), 74 to 77 °C; to `CNc1nc(-c2ccc(OC)c(OC)c2)cs1`, 120 to 123 °C.
Take `S=c1nc(-c2cc(Cl)sc2Cl)[nH]n1Cc1ccccc1`: the melting point lay within 160 to 162 °C.
To `CCCCc1ccc(CCc2cc3c(s2)NC(=S)CN=C3c2ccccc2Cl)cc1` belongs 152 to 154 °C; to `O=[N+]([O-])N=C1SCCN1Cc1ccc(Cl)nc1`, 137 to 138 °C; to `CC(F)(F)c1cccc(C[C@@H](C(=O)O)[C@@H](O)c2ccc(F)cc2)c1` (racemic), 132 to 133 °C.
The molecule `CCCCCS(=O)(=O)NC(=O)CCc1ccc(OCCOC)cc1OCC1CC1` had a melting point of 81.7 to 82.8 °C.
Consider `C[C@@H](Cn1ncc2ccc(OCCO)c(Br)c21)NC(=O)OCc1ccccc1`, for which the melting point is 97 to 99 °C.
To `CCCCCCC(=O)c1c(O)oc(=O)c(C(=O)CCCCCC)c1O` belongs 88 to 90 °C; to `COc1ccc(C2(CCN3CCC(C(=O)c4nc5ccccc5[nH]4)CC3)CCN(C(=O)c3cc(OC)c(OC)c(OC)c3)C2)cc1OC` (configuration not stated), 113 to 116 °C; to `COc1cc(Nc2c(C#N)cnc3cc(-c4ccc(CN5CCC[C@@H]5C(N)=O)o4)ccc23)c(Cl)cc1Cl`, 121 to 126 °C.
In the case of `C=CCOc1cc(OCc2ccccc2)ccc1O`, the melting point turned out to be 62 °C.
To `CC(=O)Nc1ccccc1OCCCN1CCC(c2noc3cc(F)ccc23)CC1` belongs 118 to 120 °C.
To `CN(C)C(=O)C(=O)C1=CC2(CCCC2)c2ccccc21` belongs 119 to 121 °C; to `CN1CCc2cc(S(=O)(=O)Nc3cnc4ccc(Cl)cc4n3)ccc21`, 213 to 214 °C.
To `Cn1ccc2c(ccc3[nH]cc(CCNCc4ccccc4)c32)c1=O` belongs 186 to 192 °C; to `COc1ccc2nc(-n3ccnc3)nc(NCCS(C)=O)c2c1` (configuration not stated), 238 to 242 °C; to `CCOC(=O)C(C)(C)Oc1ccc(OCc2oc(-c3ccc(C(F)(F)F)cc3)cc2C(=O)O)cc1`, 87 to 88 °C.
For `NC(=O)c1sc2cnccc2c1Oc1ccc(C(=O)N2CCOCC2)cc1`, the melting point is over 260 °C.
The molecule `Cc1csc(NC(=O)c2cn(-c3ccccc3)c3ccccc3c2=O)n1` displayed a melting point of 252 to 254 °C.
To `O=C(OC1CCCC1)c1cc([N+](=O)[O-])c(F)cc1Cl` belongs 44 to 45 °C; to `Cc1c(-c2ccccc2)c(N2CC[C@H](N(C)C)C2)c2oc(N3CC(C)(O)C3)nc2c1C#N`, 167 to 169 °C; to `CCSc1ccc(-c2coc3ccc(-c4nnc(C)o4)cc23)c(Cl)c1`, 108 to 109 °C.
The result for `COC(=O)c1c(C(=O)OC)c2sc3ccccc3n2c1-c1ccc(OC)cc1` reads 167 to 168 °C; that for `O=C(NC1(C(=O)O)CC1)C(CS)Cc1ccccc1` (configuration not stated), 222 to 224 °C.
For the molecule `Fc1ccc(Cn2c(NC3CCN(CCNc4nc5ccccc5[nH]4)CC3)nc3ccccc32)cc1`, the melting point amounted to 253 °C.
With `COc1ccc(OC)c(C(O)c2cccc(N)c2)c1` (configuration not stated), the melting point fell in the range of 132 to 134 °C.
To `CCOC(=O)N1CCN(c2nc3c(cc2F)c(=O)c(C(=O)O)cn3C2CC2)CC1` belongs 277 to 279 °C; to `Cc1cc(CCCCCCCCOc2ccc(C3=NCCO3)cc2Cl)on1`, 63 to 64 °C; to `COc1cc(C(=O)c2cnc3ccccc3c2)ccc1O`, 196 to 197 °C.
Molecule `COc1cc(NCCCCCCN2CCN(C(=O)OCc3ccccc3)CC2)c2nccc(C)c2c1` came in with a melting point of 73 to 73.5 °C.
Regarding `CCn1nc2c(N)nc3c(c2c1CC(C)(C)O)CCCC3`, the melting point lay within 202 to 204 °C.
To `C=c1c(=O)[nH]c2n1Cc1cc(OCCCC(=O)N(C)C3CCCCC3)ccc1N=2` belongs 176 to 178 °C.
Regarding `CC(C)Cc1ccc(CCc2cc3c(s2)NC(=O)CN=C3c2ccccc2Cl)cc1`, the melting point is 179 to 181 °C.
The result for `CN1C(=O)N(CCN2C(=O)N(C)C(O)C2O)C(O)C1O` (configuration not stated) reads 158 to 161 °C; that for `CC(C)S(=O)(=O)n1c(N)nc2ccc(C(=C(Cl)Cl)c3ccccc3)cc21`, 187 to 188 °C; that for `COc1c(F)c(F)c(C(=O)C=C2OC(=O)c3ccccc32)c(F)c1F`, 199 to 200 °C.
The result for `CCn1c(C)nc2cc(C#N)ccc21` reads 162 °C; that for `Cc1cc(=O)n(C)c2c(C)cc(C(O)(C(F)(F)F)C(F)(F)F)cc12`, 241 to 243 °C.
To `O=C(Nc1nccs1)c1nc(-c2ccc(N3CCCCCC3)cc2)[nH]c1-c1ccc(Cl)cc1` belongs 246 to 247 °C; to `CC(C)(C)OC(=O)N1CCC(CCOS(C)(=O)=O)CC1`, 60 to 63 °C; to `CCOC(=O)c1cn(CCCl)c2cc(N3CCN(C)CC3)c(F)cc2c1=O`, 208 °C.
Regarding `COC(=O)c1cc(N=[N+]=[N-])ccc1Nc1ccccc1`, the melting point is 64 to 65 °C.
The result for `CC(C)c1cc2c(c(O)c1-c1ccc3c(c1)CCCC3)CCCC2` reads 110 °C; that for `O=[N+]([O-])c1ccc(C=Cc2ccc(N(CCCCCCO)CCCCCCO)cc2)cc1`, 126 to 128 °C; that for `CCCCc1nc(C(=O)O)c(C(=O)O)n1Cc1ccc(I)cc1`, 98 to 99 °C.
The molecule `O=c1oc2ccccc2c2c(-c3ccccc3)c3c4ccccc4ccn3c12` returned a melting point of 313 to 315 °C.
Consider `CCOC(=O)COc1cc(C(C)C)c(NC(=O)CN2CCN(CCSc3nc4ccccc4o3)CC2)c(C(C)C)c1`, for which the melting point lay in the range of 118 to 120 °C.
The result for `C[C@@](O)(C(=O)Nc1ccc(S(=O)(=O)c2ccccc2F)cc1Cl)C(F)(F)F` reads 90 to 92 °C.
To `COc1ccc(Nc2nc(C)c(-c3nc4ccccc4c(=O)n3-c3ccc(Cl)cc3)s2)cc1` belongs over 275 °C; to `CS(=O)(=O)c1c(Cl)c2cccnc2n(Cc2ccccc2)c1=O`, 191 °C.
The result for `CNC1(c2ccccc2)CCC(=O)CC1` reads 32 to 38 °C.
Molecule `CC(C)(C)OC(=O)N1CCc2ccccc2CC1` had a melting point of 88 to 89 °C.
The result for `COc1ccc2c(c1)c(OC(C)C)c(C(=O)O)n2C` reads 110 to 112 °C; that for `CNC(=O)c1cccnc1CC(=O)c1ccc(Cl)cc1`, 162 to 163 °C; that for `Cc1noc(NS(=O)(=O)c2ccsc2C/C=C/c2ccc3c(c2)OCO3)c1Br`, 147 to 149 °C.
The result for `CCOP(=O)(OCC)C(CC(NC(=O)OC(C)(C)C)C(=O)c1ccccc1)P(=O)(OCC)OCC` (configuration not stated) reads 56 to 57 °C; that for `Cc1nc(N2CCN(CC3CCC3)C2=O)sc1C(=O)NCc1cccnc1`, 136 to 137 °C.
The result for `CCCCc1nc2c(N)nc3ccccc3c2n1CCNS(C)(=O)=O` reads 210 to 211 °C; that for `CC1(C)C(=O)Nc2ccc(C(=O)O)cc21`, over 250 °C.
In turn, `CCOCCn1cc2c(C3C(=O)Nc4ccc(Cl)cc43)nc(Cl)nc2n1` (configuration not stated) registered a melting point of over 300 °C.
`COc1cc(-c2cc(N)n(C)c3nc(N)nc(=O)c2-3)cc(OC)c1OC` showed a melting point of over 300 °C.
To `COC(=O)CCCCCCCCCCCCCCCCCCCS(=O)(=O)c1ccc(C)cc1` belongs 72.5 to 73.5 °C; to `CC1(C(F)(F)F)CC(=O)C(C(=O)c2ccc(C(F)(F)F)cc2[N+](=O)[O-])C(=O)N1` (configuration not stated), 164 to 166 °C; to `O=C(NC1CCCCC1)N(C(=O)c1ccccc1[N+](=O)[O-])C1CCCCC1`, 134 °C.
The molecule `C#Cc1ccc(C(=O)OCC)cn1` had a melting point of 35 °C.
